According to patent US20100317845A1, “Sucrose of new confrontational polymorphs and manufacturing method thereof” (NATIONAL CENTRAL UNIVERSITY, priority 2009, published 2010):
In brackets after ≈: the same amount, converted by molar mass.

Tests used:
physchem [1] = assay type: physicochemical; details: 25 °C
physchem [2] = assay type: physicochemical; details: 60 °C, water
Experimental: In Step S42, preheat 60 mL of furfuryl alcohol below 60° C. for approximately 15 minutes. In Step S43, mix the furfuryl alcohol and the saturated sucrose solution in a ratio of 1:1, and stir the mixed solution uniformly by a rotation speed of 500 rpm. In Step S44, maintain the mixed solution at 60° C., and crystal starts forming after approximately 4 to 5 hours. In Step S45, turn off the power of the constant-temperature water tank, and lower the temperature to room temperature naturally, and maintain this state for three days until the crystallization completes, and filter the mixed solution, and rinse the recrystallized sucrose by ethyl alcohol or acetone, and bake the crystal sucrose in a vacuum oven at 40° C. for 24 hours to obtain a Form II sucrose of a new conformational polymorph in accordance with the present invention.

solubility (physchem [1]): 1850 to 1950 mg/mL (≈ 5400 to 5700 mM)
solubility (physchem [2]): 2870 mg/mL (≈ 8390 mM)
Structure (SMILES): OC[C@H]1O[C@@](CO)(O[C@H]2O[C@H](CO)[C@@H](O)[C@H](O)[C@H]2O)[C@@H](O)[C@@H]1O [Form I sucrose, sucrose]
